Test [1] has as its system U-937. The test can be described thus: Cell cycle arrest in human U937 cells assessed as accumulation at S phase at 25 uM after 42 hrs by flow cytometry. It is filed as functional, cell-based. (A flow cytometer gives signals particle by particle.)
Test [2] deals with U-937. Briefly: Induction of apoptosis in human U937 cells at 25 uM after 42 hrs by flow cytometry. It is filed as functional.
Test [3] has as its system U-937. The test can be described thus: Inhibition of recombinant CBP in human U937 cells at 50 uM. Set-up: scale not given: the % may be the effect or the level left. Format: cell-based.
In test [4] the test system is U-937. Briefly: Effect on non histone alpha-tubulin in human U937 cells at 50 uM after 16 hrs by Western blot analysis. It is filed as functional, cell-based. Background: A western blot detects proteins with antibodies after separation by electrophoresis.
Test [5] addresses Histone acetyltransferase KAT2A (Homo sapiens) (UniProt Q92830). The test can be described thus: Inhibition of GCN5 in human U937 cells at 50 uM. It is filed as cell-based. As to conditions: U-937.
For test [6], the target named is Histone acetyltransferase KAT2B (Homo sapiens) (UniProt Q92831). The test can be described thus: Effect on PCAF in human U937 cells assessed as increase in acetylation activity at 50 uM. It is filed as cell-based. As to conditions: U-937.
Histone acetyltransferase KAT2B (Homo sapiens), sequence (Q92831 whole entry, looked up): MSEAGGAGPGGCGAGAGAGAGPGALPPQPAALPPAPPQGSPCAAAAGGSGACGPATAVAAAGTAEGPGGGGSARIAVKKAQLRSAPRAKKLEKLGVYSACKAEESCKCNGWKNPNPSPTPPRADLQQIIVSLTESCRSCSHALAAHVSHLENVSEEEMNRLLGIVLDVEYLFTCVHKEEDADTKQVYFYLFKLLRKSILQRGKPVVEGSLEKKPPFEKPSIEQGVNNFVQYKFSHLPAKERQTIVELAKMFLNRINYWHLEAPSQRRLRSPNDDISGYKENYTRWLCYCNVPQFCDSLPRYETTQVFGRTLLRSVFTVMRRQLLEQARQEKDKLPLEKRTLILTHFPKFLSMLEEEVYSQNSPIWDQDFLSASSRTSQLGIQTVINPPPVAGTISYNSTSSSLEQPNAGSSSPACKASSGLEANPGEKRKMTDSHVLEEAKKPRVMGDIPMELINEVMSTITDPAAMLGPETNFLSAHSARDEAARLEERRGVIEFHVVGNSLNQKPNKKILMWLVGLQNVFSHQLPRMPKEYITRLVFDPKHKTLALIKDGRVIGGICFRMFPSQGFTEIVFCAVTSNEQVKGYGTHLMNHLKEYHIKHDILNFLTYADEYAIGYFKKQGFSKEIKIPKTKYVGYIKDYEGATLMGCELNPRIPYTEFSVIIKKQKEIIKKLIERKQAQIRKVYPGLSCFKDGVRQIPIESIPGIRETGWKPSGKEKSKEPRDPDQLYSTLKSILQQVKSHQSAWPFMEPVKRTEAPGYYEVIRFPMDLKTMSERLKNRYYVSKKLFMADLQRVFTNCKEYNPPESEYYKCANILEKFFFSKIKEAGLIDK
In test [7] the test system is U-937. The test can be described thus: Increase in histone H3 acetylation in human U937 cells at 50 uM after 16 hrs by Western blot analysis. Format: functional, cell-based.
The test system of test [8] is U-937. Briefly: Increase in histone H3 acetylation in human U937 cells at 50 uM after 20 hrs by Western blot analysis. It is filed as functional, cell-based.
The test system of test [9] is U-937. The test can be described thus: Induction of apoptosis in human U937 cells at 50 uM after 42 hrs by flow cytometry. It is filed as functional.
Test [10] has as its system U-937. Briefly: Increase in histone H3 acetylation in human U937 cells at 5 uM after 20 hrs by Western blot analysis. Format: functional, cell-based.
Test [11] deals with HEK-TE. The test can be described thus: Increase in histone H3 acetylation in human HEK-TE cells at 50 uM after 6 hrs by Western blot analysis. Format: functional, cell-based.
Test [12] deals with U-937. Briefly: Inhibition of p300/CBP in human U937 cells at 50 uM. It is filed as cell-based. More on the design: scale not given: the % may be the effect or the level left.
Test [13] deals with HEK-TE. The test can be described thus: Increase in histone H3 acetylation in human HEK-TE cells at 5 uM after 6 hrs by Western blot analysis. Format: functional, cell-based.

Activity calls are given as the source filed them. The calls are words filed in the database; no cut-off is given here.

Histone acetyltransferase KAT2A (Homo sapiens), sequence (Q92830 2-837 limits assumed): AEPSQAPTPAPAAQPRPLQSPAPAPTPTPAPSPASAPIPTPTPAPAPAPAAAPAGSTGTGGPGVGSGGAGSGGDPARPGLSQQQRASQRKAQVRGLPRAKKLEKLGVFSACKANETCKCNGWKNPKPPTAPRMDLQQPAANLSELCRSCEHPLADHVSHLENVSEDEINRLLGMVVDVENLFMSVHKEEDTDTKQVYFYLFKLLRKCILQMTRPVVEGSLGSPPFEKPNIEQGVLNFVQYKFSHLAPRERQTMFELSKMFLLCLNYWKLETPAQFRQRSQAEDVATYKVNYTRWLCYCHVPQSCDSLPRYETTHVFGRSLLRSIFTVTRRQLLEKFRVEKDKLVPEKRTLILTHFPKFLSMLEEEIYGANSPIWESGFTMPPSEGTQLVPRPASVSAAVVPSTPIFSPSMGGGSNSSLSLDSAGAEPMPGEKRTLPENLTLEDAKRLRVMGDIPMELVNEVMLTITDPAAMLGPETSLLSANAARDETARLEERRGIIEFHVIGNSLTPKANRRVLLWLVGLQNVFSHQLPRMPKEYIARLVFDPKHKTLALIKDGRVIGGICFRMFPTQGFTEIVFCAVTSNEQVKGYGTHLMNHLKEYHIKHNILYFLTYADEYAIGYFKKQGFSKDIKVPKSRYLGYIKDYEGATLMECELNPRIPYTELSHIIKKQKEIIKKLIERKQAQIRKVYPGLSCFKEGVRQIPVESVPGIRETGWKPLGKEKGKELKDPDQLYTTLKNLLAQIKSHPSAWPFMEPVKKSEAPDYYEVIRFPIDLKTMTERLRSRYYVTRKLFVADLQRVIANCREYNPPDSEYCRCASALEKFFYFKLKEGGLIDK

As to `CCCCCCCCCCCCCC=C(C(=O)OCC)C(=O)OCC`, the outcome in [1] was Active. In test [2], the Activity was 23.8%.
Consider `CCCCCCCCCCCCCCC=C(C(=O)OCC)C(=O)OCC`, for which the Activity is 81% in test [3], 23.9% in [2], 94.4% in test [9] and 74% in test [12]. Also, the outcome in test [4] and in test [5] was inactive. The result in test [1], in test [6], in test [7], in test [8], in test [10] and in test [11] was Active. For the same compound, in [13], the result was Active.
With `C=C1C(=O)O[C@H](CCC)[C@H]1C(=O)O`, the Activity in test [3] was 55%.
As to `COc1cc(/C=C/C(=O)CC(=O)/C=C/c2ccc(O)c(OC)c2)ccc1O`, the Activity in [12] is 46%.
As for `C=CC/C=C\C/C=C\CCCCCCCc1cccc(O)c1C(=O)O`, in test [3], the Activity amounted to 62%.
With `O=C(CCCCCCC(=O)Nc1ccccc1)NO`, the result in [13] was Active.

The values above are taken from ChEMBL document CHEMBL1145635, “Identification of long chain alkylidenemalonates as novel small molecule modulators of histone acetyltransferases” (2008).
